Reference: patent US6906170B1 (Yeda Research and Development Co. Ltd., priority 1998, dated 2005)
No end group written: not given here.

Key:
human T cells [1] = assay: PHA- or IL-2-mediated T cell proliferation; format: cell-based; conditions: peptide 1 to 100 pg/ml
Experimental: The in vitro bioassays (a) to (e) are well-known in the art. Thus, for example, assays (a), (b) and (e) may be carried out as described in the section Materials and Methods hereinafter. […] The IL-2-derived peptides or their derivatives are added to the culture wells (different amounts, 10 microliters) for the entire period of the assay. [^3H]-Thymidine is added to the microtiter 96 U-form well plates 18 h before harvesting the cultures on day 3 onto glass fiber filters and counted by liquid scintillation counter. Mean CPM and SD from quadriplicate culture are then presented.

human T cells [2] = assay: IL-2-induced T cell adhesion to LN, CO-IV and FN after peptide pre-treatment; format: cell-based; conditions: pre-exposed to peptide 10 pg/ml, then IL-2 10 U/ml
Experimental: The T cells were then seeded onto microtiter wells that were pre-coated (1 μg/well) with the various ECM glycoproteins. T cell adhesion was measured 30 min later.
(§1) T cell adhesion assays. Human T cells were purified from the peripheral blood of healthy donors, and T cell adhesion to immobilized protein substrates was examined as follows: Human leukocytes were isolated on a Ficoll gradient, washed, and incubated (2 h, 37° C., 7.5% CO2, humidified atmosphere) on petri dishes. The non-adherent cells were then collected and incubated (1 h, 37° C., 7.5% CO2, humidified atmosphere) on nylon wool columns (Novamed Ltd., Jerusalem, Israel). Unbound cells were eluted from the columns by extensive washings. The resulting cell population was always >92% T cells. […] After 4-6 h at 37° C., the wells were washed and ^51[Cr]-labeled T cells were added to the wells, 10^5 cells/100 μl of adhesion medium (RPMI-1640 supplemented with 0.1% BSA, 1% sodium pyruvate, 1% HEPES buffer). The microtiter plates containing the cells were incubated (30 min, 37° C.) in a humidified, 7.5% CO2 atmosphere, and then washed. The adherent cells were lysed, and the resulting supernatants were removed and analyzed in a γ-counter. For each experimental group, the results were expressed as the mean percentage ±SD of bound T cells from quadruplicate wells.
Ile-Val-Leu, Arg-Met-Leu-Thr (SEQ ID NO:2) and […](SEQ ID NO:1) inhibit T cell adhesion to LN, CO-IV and FN. The next experiment was designed and performed to verify that the three IL-2-derived peptides indeed affect T cell interactions with ECM glycoproteins other than FN. […] The treated cells were then added to microtiter wells coated with CO-IV, LN, and FN.

human T cells [3] = assay: IL-2-induced T cell adhesion to fibronectin (FN); format: cell-based; conditions: for concentration giving maximum inhibition of IL-2-induced T cell adhesion to FN / concentration giving maximum inhibition of IL-2-induced T cell adhesion to FN (molar) / inhibition of adhesion of IL-2-activated T cells to FN: IL-2 10 U/ml; for inhibition of adhesion of IL-2-activated T cells to FN: 30 min at 37° C., dose range; for anti-adhesive effect after removal of peptide prior to IL-2 activation: T cells pre-treated 1 pg/ml, washed, then IL-2 and FN-coated wells
Experimental: as §1
The effect of synthetic peptides, with putative amino acid compositions corresponding to fractions 2 and 8, on IL-2-induced T cell adhesion to FN. […] These three peptides were synthesized, and their effects on IL-2-induced T cell adhesion to FN were studied. […] The inhibitory dose-response curves of Ile-Val-Leu and […](SEQ ID NO:1) are similar to those of the HPLC fractions 2 and 8, respectively, from which they were derived. […]

human T cells [4] = assay: T cell adhesion to FN induced by various activators; format: cell-based; conditions: for inhibition of T cell adhesion to FN induced by various stimulators: peptide 10 pg/ml, IL-2, IL-7, MIP-1β, PMA, 8A2 mAb, anti-CD3 mAb
Experimental: FIGS. 7A-7B show inhibition by pep2 (FIG. 7A) and pep1 (FIG. 7B) of T cell adhesion to FN, induced by various activators. […] (1 μg/ml), or anti-human CD3 mAb (1 μg/ml). The IL-2-derived peptides, pep1 or pep2, were also present in some wells. After 30 min at 37° C., non-adherent T cells were removed by washing, the remaining adherent cells were lysed, and the percentage of T cells that had adhered was determined. One experiment representative of four.
as §1
Inhibition by the Ile-Val-Leu and […](SEQ ID NO:1) peptides of T cell adhesion to FN induced by various pro-inflammatory mediators and by mAb specific for molecules expressed on T cells.

human T cells [5] = assay: Secretion of TNF-α and IFN-γ from proliferating T cells; format: cell-based; conditions: peptide 1 to 100 pg/ml; not shown
T cells = assay: Staining of actin cytoskeleton in FN-adherent activated T cells; format: cell-based, human; conditions: TRITC-phalloidin staining
Experimental: FIGS. 8A-8E show inhibition by pep2 of the spreading and redistribution of the actin cytoskeleton in IL-2- and PMA-activated FN-adherent T cells. […] After incubation, the intracellular actin filaments of the fixed FN-attached T cells were stained. Original magnification, =1000.
Staining of actin cytoskeleton. T cells were incubated (18 h, 37° C., 7.5% CO2, humidified atmosphere) in culture medium. […] After 1 h at 37° C., the adherent cells were fixed (3 min) with paraformaldehyde (3%) and Triton X-100 (0.5%), washed, and fixed (20 min) again with paraformaldehyde (3%). The fixed adherent cells were washed, treated with TRITC-phalloidin, and washed again. Photographs (×1000 magnification) were then taken.
Inhibition of the reorganization of the actin cytoskeleton in FN-attached activated T cells by the […](SEQ ID NO:1) peptide. The adhesion of immune cells to ECM is dependent on the sequestering of the cytoplasmic domains of integrins in focal adhesion sites, together with actin-containing microfilament bundles (Sanchez-Mateos et al., 1996). Therefore, we examined the effect of […](SEQ ID NO:1) on the morphologies of adherent T cells. […] After incubation and fixation, the actin cytoskeleton of attached T cells was stained with TRITC-conjugated phalloidin. […]

| Substance | interference with PHA- or IL-2-mediated proliferative responses (human T cells [1]) | inhibition of T cell adhesion to CO-IV, LN and FN (human T cells [2]) | concentration giving maximum inhibition of IL-2-induced T cell adhesion to FN (human T cells [3]) [pg/mL] | concentration giving maximum inhibition of IL-2-induced T cell adhesion to FN (molar) (human T cells [3]) [pM] | inhibition of adhesion of IL-2-activated T cells to FN (human T cells [3]) | anti-adhesive effect after removal of peptide prior to IL-2 activation (human T cells [3]) | inhibition of 8A2-induced T cell adhesion to FN (human T cells [4]; peptide 0.1 pg/ml) | inhibition of PMA-induced T cell adhesion to FN (human T cells [4]; peptide 0.1 pg/ml) | inhibition of T cell adhesion to FN induced by various stimulators (human T cells [4]) | inhibition of secretion of TNF-α and IFN-γ from proliferating T cells (human T cells [5]) | redistribution of the actin cytoskeleton in IL-2- and PMA-treated FN-adherent T cells (T cells) | inhibition of anti-CD3 mAb-induced T cell adhesion to FN (human T cells [4]; peptide 0.1 pg/ml) |
| --- | --- | --- | --- | --- | --- | --- | --- | --- | --- | --- | --- | --- |
| Glu-Phe-Leu-Asn-Arg-Trp-Ile-Thr (EFLNRWIT; not fully specified (C-terminus); printed as Glu-Phe-Leu-Asn-Arg-Trp-Ile-Thr) [pep2] | none of them, at 1 to 100 pg/ml, interfered with either PHA- or IL-2-mediated proliferative responses | inhibit T cell adhesion to the three major cell-adhesive glycoproteins of the ECM | 1 | 0.92 | inhibited, in a dose-dependent manner | most of the anti-adhesive effects of the three peptides persevered | did not inhibit | did not inhibit | inhibited T cell adhesion to FN | nor did these peptides inhibit the secretion of TNF-α and IFN-γ | inhibited the redistribution of the actin skeleton | – |
| Ile-Val-Leu [pep1] | none of them, at 1 to 100 pg/ml, interfered with either PHA- or IL-2-mediated proliferative responses | inhibit T cell adhesion to the three major cell-adhesive glycoproteins of the ECM | 1 | 2.91 | inhibited, in a dose-dependent manner | most of the anti-adhesive effects of the three peptides persevered | did not inhibit | did not inhibit | inhibited T cell adhesion to FN | nor did these peptides inhibit the secretion of TNF-α and IFN-γ | inhibition of the redistribution of the actin cytoskeleton | did not inhibit |
